Patent publication US9220795B2, “Indole derivatives” (priority 2011, dated 2015)

Experiments:
[1] = biological target: T1, Wistar rat heart PBR (Rattus norvegicus, UniProt P16257); test: In vitro potency assay: competition for binding to PBR against 0.3 nM [3H]PK-11195; conditions: non-radioactive analogues; vs 0.3 nM [3H]PK-11195; 15 minutes at 25° C.; 6 concentrations
T1 construct: from tissue; host or cells: Wistar rat heart
Experimental: Affinity for PBR was screened using a method adapted from Le Fur et al (Life Sci. 1983; USA 33: 449-57). Non-radioactive analogues of in vivo imaging agents of the invention were tested along with a non-radioactive analogue of a previous tetracyclic indole imaging agent (from co-pending patent application PCT/EP2009/062827; synthesis described in Example 17 below):
Each test compound (dissolved in 50 mM Tris-HCl, pH 7.4, 10 mM MgCl2 containing 1% DMSO) competed for binding to Wistar rat heart PBR against 0.3 nM [^3H] PK-11195. The reaction was carried out in 50 mM Tris-HCl, pH 7.4 10 mM MgCl2 for 15 minutes at 25° C.

[2] = In vivo biodistribution method; parameters: species or system Adult male Wistar rats; conditions: for Brain 2 min (% ID/g): 2 min after injection via lateral tail vein, 1-3 MBq, n=3; for % Activity in Brain = Parent @ 60 min: 60 min after injection; for OB 30 min (% ID/g): olfactory bulb, 30 min after injection; for OB: Str 30 min: ratio olfactory bulb to striatum at 30 min; for Str 2: 30 min: ratio striatum 2 min to 30 min
Experimental: Imaging agents of the invention were tested in an in vivo biodistribution model along with a previous tetracyclic imaging agent (from co-pending patent application PCT/EP2009/062827; synthesis described in Example 18 below).

Structure (SMILES) | Ki [1] [nM] | Brain 2 min (% ID/g) [2] [% ID/g] | % Activity in Brain = Parent @ 60 min [2] [%] | OB 30 min (% ID/g) [2] [% ID/g] | OB: Str 30 min [2] | Str 2: 30 min [2]
CCN(CC)C(=O)C1Sc2ccccc2-c2c1c1cc(OC)ccc1n2CCF (racemic) [tetracyclic indole, (+−)-11-(2-[^18F]fluoroethyl)-8-methoxy-6,11-dihydro-5-thia-11-aza-benzo[a]fluorene-6-carboxylic acid diethyl amide, reference compound] | 0.369 | – | – | – | – | –
CCN(CC)C(=O)C1Sc2ccccc2-c2c1c1cc(OC)ccc1n2CC[18F] (racemic) [tetracyclic indole, (+−)-11-(2-[^18F]fluoroethyl)-8-methoxy-6,11-dihydro-5-thia-11-aza-benzo[a]fluorene-6-carboxylic acid diethyl amide, reference compound] | – | 0.32 | 96.00 | 0.31 | 2.07 | 1.73
CCN(CC)C(=O)C1CCCc2c1c1c(OC)cccc1n2CCF (stereo not drawn) [Imaging agent 5, 9-(2-[^18F]-Fluoro-ethyl)-5-methoxy-2,3,4,9-tetrahydro-1H-carbazole-4-carboxylic acid diethylamide] | 2.35 | – | – | – | – | –
O=C(C1CCCc2c1c1ccccc1n2CCF)N1CCCCC1 (stereo not drawn) [Imaging agent 6, [9-(2-[^18F]-Fluoro-ethyl)-2,3,4,9-tetrahydro-1H-carbazol-4-yl]-piperidin-1-yl-methanone] | 18.3 | – | – | – | – | –
CN(Cc1ccccc1)C(=O)C1CCCc2c1c1ccccc1n2CCF (stereo not drawn) [Imaging agent 7, 9-(2-[^18F]fluoro-ethyl)-2,3,4,9-tetrahydro-1H-carbazole-4-carboxylic acid benzyl-methyl-amide] | 1.25 | – | – | – | – | –
CN(Cc1ccccc1)C(=O)C1CCCc2c1c1ccccc1n2CC[18F] (stereo not drawn) [Imaging agent 7, 9-(2-[^18F]fluoro-ethyl)-2,3,4,9-tetrahydro-1H-carbazole-4-carboxylic acid benzyl-methyl-amide] | – | 0.55 | 81.28 | 0.34 | 3.40 | 4.70
CCN(CC)C(=O)C1CCCc2c1c1cc(F)ccc1n2CCF (stereo not drawn) [Imaging agent 9, 6-Fluoro-9-(2-[^18F]fluoro-ethyl)-2,3,4,9-tetrahydro-1H-carbazole-4-carboxylic acid diethylamide] | 3.79 | – | – | – | – | –
CCN(CC)C(=O)C1CCCc2c1c1cc(F)ccc1n2CC[18F] (stereo not drawn) [Imaging agent 9, 6-Fluoro-9-(2-[^18F]fluoro-ethyl)-2,3,4,9-tetrahydro-1H-carbazole-4-carboxylic acid diethylamide] | – | 0.56 | 84.30 | 0.41 | – | –
CCN(CC)C(=O)C1CCCc2c1c1c(F)cccc1n2CC[18F] (stereo not drawn) [Imaging agent 10, 5-Fluoro-9-(2-[^18F]fluoro-ethyl)-2,3,4,9-tetrahydro-1H-carbazole-4-carboxylic acid diethylamide] | – | 0.50 | 92.70 | 0.51 | – | –
CCN(CC)C(=O)C1CC(C)Cc2c1c1ccccc1n2CCF (stereo not drawn) [Imaging agent 11, 9-(2-[^18F]-Fluoro-ethyl)-2-methyl-2,3,4,9-tetrahydro-1H-carbazole-4-carboxylic acid diethylamide] | 2.12 | – | – | – | – | –
CCN(CC)C(=O)C1CC(C)Cc2c1c1ccccc1n2CC[18F] (stereo not drawn) [Imaging agent 11, 9-(2-[^18F]-Fluoro-ethyl)-2-methyl-2,3,4,9-tetrahydro-1H-carbazole-4-carboxylic acid diethylamide] | – | 0.51 | 90.37 | 0.42 | 3.50 | 3.33
